Measurements from patent US20080161367A1, “Insecticidal Mixtures” (BASF Aktiengesellschaft, priority 2005, published 2008).

What was measured:
[1] = test system: Western corn rootworm larvae (Diabrotica virgifera virgifera); test: Seed treatment of field corn seeds, Western corn rootworm larval mortality; assay type: in vivo; conditions: corn seed treatment at the rate printed in the row (fipronil 0.005, clothianidin 0.05 g a.i./100 kg seed); 2nd instar larvae; mortality 1 day after infestation, adjusted for untreated controls
Procedure: (§1) Each mixture partner has been evaluated separately at the same rates as used in the mixtures. Synergism was determined by comparing the expected biological effect on plant health or on disease control from the mixture based on the individual effects from the separate partners to the biological effect observed with the mixture. Abbott's formula has be used to make this comparison.
Field corn seeds (Zea mays) were treated with a mixture of commercially available fipronil SC formulation (REGENT® 4 SC—479 g a.i./L) at rates of 0.005 g ai/100 kg seed with commercially available clothianidin formulation (PONCHO® 600—600 g a.i./L) at 0.05 g ai/100 kg seed. In addition, there was a treatment with each mixture partner at its respective solo rate. The carrier for all treatments was water. The respective formulation(s) and water were mixed in a 20 ml vial. Then 25 seeds were added, and the vial was vortexed. After treatment, seeds were allowed to dry. […] Petri plates were incubated at 26° C., and insect mortality was evaluated 1 day later. Percent mortalities were calculated adjusting for any mortality in the untreated controls.
The expected percent mortality for the mixture was calculated based on the percent mortalities observed when each mixture partner was applied solo at the rate it was applied in the mixture using Abbott's formula as follows: […]

[2] = test system: Colorado potato beetle larvae (Leptinotarsa decemlineata); test: Foliar insecticidal activity on eggplant, Colorado potato beetle feeding damage; assay type: in vivo; conditions: foliar spray on eggplant at 0.05 ppm each; 2nd instar larvae; evaluated 3 days later, relative to untreated controls
Procedure: as §1
The foliage of eggplant plants (Solanum melongena, variety Black Beauty) at the 4th to 5th true-leaf stage was treated with a mixture of commercially available fipronil SC formulation (REGENT® 4 SC, 479 g a.i./L-) at 0.05 ppm with commercially available clothianidin formulation (PONCHO® 600, 600 g a.i./L) at 0.05 ppm. In addition, there was a treatment with each mixture partner at its respective solo rate. Treatment was by spraying the leaves to near run-off. The carrier for all treatments was water. Two leaves on each of three plants were sprayed per treatment. […] Insect feeding damage to the foliage was evaluated 3 days later. Percent reductions in insect feeding damage were calculated based on the untreated controls.
The expected reduction in feeding damage for the mixture was calculated based on the percent reductions observed when each mixture partner was applied solo at the rate it was applied in the mixture using Abbott's formula as follows: […]

Row | SMILES | Actual Mixture Response [% Larval Mortality] [1] | Actual Mixture Response [% Reduction in Insect Feeding Injury] [2]
1 | CN/C(=N\[N+](=O)[O-])NCc1cnc(Cl)s1 [Clothianidin, clothianidin] | 14% | 21%
2 | N#Cc1nn(-c2c(Cl)cc(C(F)(F)F)cc2Cl)c(N)c1[S+]([O-])C(F)(F)F (stereo not shown) [Fipronil, fipronil] | 0% | 0%
